Measured values from US20250381165A1, “Method of Use for Benzofuran Compounds” (Tampa Bay Research Institute, Inc., priority 2024, published 2025).

Tests used:
[1] = system: DC2.4 cells presenting SIINFEKL to B3Z CD8+ T cell hybridoma; assay: B3Z activation by SIINFEKL-pulsed DC2.4 (CPRG β-gal assay); assay type: cell-based, murine
Procedure: DC2.4 cells (2.5×10^4 cells/well) were seeded at 100 μL/well in 96 well tissue culture white sided/white bottom plate and incubated overnight to allow for cell adherence. 37° C. in an atmosphere containing 5% CO2 and 95% humidity. Following pre-treatment of the DC2.4 cells (1-24 h) with escalating doses of the test molecules, the cells were washed, pulsed with 0.5 nM of the MHC class I H-2Kb peptide, SIINFEKL, for 1 h, and then co-cultured with the CD8+ T cell hybridoma, B3Z.
The level of B3Z cell activation and the effects of the various test molecules on B3Z activation were quantified in cell lysates using the β-gal chromogenic substrate, CPRG. The media was removed and 100 μL of 250 μM CPRG reconstituted in the lysis buffer (1×DPBS, 0.2% v/v saponin, 20 mM magnesium chloride) was added directly to each well. Cells were maintained at 37° C. prior to measurement. The absorbance at 560 nm (700 nm for background) was intermittently monitored using a BioTek Synergy HTX multimode microplate reader (Winooski, VT) to detect β-gal activity. CPRG lysis buffer and B3Z cells only served as the negative controls. All treatments were performed in triplicate and all experiments were repeated a minimum of three times.
Activation of B3Z T cell hybridoma cells was assessed following their exposure to various MHC class I H-2K^b positive cell lines presenting the SIINFEKL peptide. B3Z are a CD8+ SIINFEKL peptide specific T-cell hybridoma expressing a beta-galactosidase (β-gal) reporter gene driven by NF-AT elements on the interleukin 2 (IL-2) promoter. […] Activation of B3Z leads to production of β-gal whose presence can be quantified using the optimized detection assay described by Jendresen et al. (Jendresen, et al., An improved CPRG colorimetric ligand-receptor signal transduction assay based on beta-galactosidase activity in mammalian BWZ-reporter cells. J Pharmacol Toxicol Methods. 2018 March-April; 90:67-75).
To stimulate β-gal production in the B3Z, the H-2Kb murine cell lines, DC2.4, B16F10, and E.G7-OVA, or freshly isolated murine splenocytes, were plated at a density of 2.5 or 5×10^4 cells/well (100 μL/well in 96 well plates) and cultured overnight at 37° C. in an atmosphere containing 5% CO2 and 95% humidity. The cells were washed with DPBS and then treated for 1-24 h with the indicated concentrations of BzFβ suspended in complete media. Vehicle controls were always included. […]
To detect activation of the B3Z cells, the media was removed and 100 μL of 250 µM CPRG reconstituted in the lysis buffer (1×DPBS, 0.2% v/v saponin, 20 mM magnesium chloride) was added directly to each well. […] The absorbance at 560 nm (700 nm for background) was intermittently monitored using a BioTek Synergy HTX multimode microplate reader (Winooski, VT) to detect β-gal activity. […]

[2] = system: DC2.4 cells (B3Z activation); assay: Pathway inhibitor studies in DC2.4/B3Z assay; assay type: cell-based, murine; details: DC2.4, 3 μg/mL BFA, 25 μg/mL BzFβ 6 h, 0.5 nM SIINFEKL
Procedure: […]. The cytotoxicity of all inhibitors was assessed using CellTiter96 Aqueous One (Promega (Madison WI, USA); cat. no. G3580).
. The cells were then washed 2× before addition of BzFβ. Cells exposed to the other inhibitors were incubated with an appropriate concentration of each inhibitor, seen in Table 1 in cDMEM at 37° C., 5% CO2. […]. Cells were then incubated for 6 h. Before B3Z addition the inhibitor and BzFβ were removed, and the cells washed with warm DPBS. If testing peptide presentation, the DC2.4 cells were pulsed with 0.5 nM […] for 1 h prior to being cocultured with B3Z.

O=C(O)/C=C/c1ccc2occc2c1 [BzFβ, (2E)-3-(1-benzofuran-5-yl)prop-2-enoic acid]
B3Z response versus peptide pulsed DC2.4 alone ([1]; co-treatment 1 h, 25 μg/mL BzFβ, 15 pM to 1 nM SIINFEKL, 19 h coculture): significantly greater
time to significantly enhanced B3Z activation ([1]; peptide pulsed DC2.4): 5 min
B3Z activation with SIINFEKL in presence of BFA [2]: unaffected
